In paper PMC9628810 (Science (New York, N.Y.), 2022):

What was measured:
NLP7 (GST-NLP7-8xHIS) = target: T1, NLP7 (GST-NLP7-8xHIS) (Arabidopsis thaliana, UniProt Q84TH9); assay: microscale thermophoresis; format: binding
T1 sequence (Q84TH9 1-959): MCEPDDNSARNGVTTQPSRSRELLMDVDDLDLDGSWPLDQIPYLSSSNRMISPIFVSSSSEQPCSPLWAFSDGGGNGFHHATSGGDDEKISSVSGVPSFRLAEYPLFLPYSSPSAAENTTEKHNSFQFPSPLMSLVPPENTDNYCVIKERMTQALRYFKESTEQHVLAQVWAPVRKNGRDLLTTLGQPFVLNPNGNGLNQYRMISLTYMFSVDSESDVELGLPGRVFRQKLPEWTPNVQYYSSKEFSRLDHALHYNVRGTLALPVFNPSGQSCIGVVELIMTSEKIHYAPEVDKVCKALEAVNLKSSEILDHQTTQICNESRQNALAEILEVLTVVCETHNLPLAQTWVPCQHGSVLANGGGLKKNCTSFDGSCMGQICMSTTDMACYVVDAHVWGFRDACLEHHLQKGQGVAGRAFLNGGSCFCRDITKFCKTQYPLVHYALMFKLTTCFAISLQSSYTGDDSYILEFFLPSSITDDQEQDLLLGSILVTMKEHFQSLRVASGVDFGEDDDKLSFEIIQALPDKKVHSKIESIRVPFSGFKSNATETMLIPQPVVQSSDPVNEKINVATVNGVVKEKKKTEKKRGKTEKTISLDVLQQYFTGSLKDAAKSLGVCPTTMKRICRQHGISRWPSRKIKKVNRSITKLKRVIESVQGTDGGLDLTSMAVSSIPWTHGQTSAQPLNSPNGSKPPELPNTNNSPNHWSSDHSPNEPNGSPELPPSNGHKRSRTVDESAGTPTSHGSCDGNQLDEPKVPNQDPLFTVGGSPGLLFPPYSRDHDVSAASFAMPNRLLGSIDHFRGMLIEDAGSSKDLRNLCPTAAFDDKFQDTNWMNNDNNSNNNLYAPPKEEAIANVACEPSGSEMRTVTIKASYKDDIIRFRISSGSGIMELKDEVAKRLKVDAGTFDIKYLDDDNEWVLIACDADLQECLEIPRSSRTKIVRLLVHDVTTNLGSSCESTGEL

[1] = target: T2, N-NLP7(1–581) (GST-N-NLP7-8xHIS) (Arabidopsis thaliana, UniProt Q84TH9); assay: microscale thermophoresis; format: binding
T2 sequence (Q84TH9 1-581): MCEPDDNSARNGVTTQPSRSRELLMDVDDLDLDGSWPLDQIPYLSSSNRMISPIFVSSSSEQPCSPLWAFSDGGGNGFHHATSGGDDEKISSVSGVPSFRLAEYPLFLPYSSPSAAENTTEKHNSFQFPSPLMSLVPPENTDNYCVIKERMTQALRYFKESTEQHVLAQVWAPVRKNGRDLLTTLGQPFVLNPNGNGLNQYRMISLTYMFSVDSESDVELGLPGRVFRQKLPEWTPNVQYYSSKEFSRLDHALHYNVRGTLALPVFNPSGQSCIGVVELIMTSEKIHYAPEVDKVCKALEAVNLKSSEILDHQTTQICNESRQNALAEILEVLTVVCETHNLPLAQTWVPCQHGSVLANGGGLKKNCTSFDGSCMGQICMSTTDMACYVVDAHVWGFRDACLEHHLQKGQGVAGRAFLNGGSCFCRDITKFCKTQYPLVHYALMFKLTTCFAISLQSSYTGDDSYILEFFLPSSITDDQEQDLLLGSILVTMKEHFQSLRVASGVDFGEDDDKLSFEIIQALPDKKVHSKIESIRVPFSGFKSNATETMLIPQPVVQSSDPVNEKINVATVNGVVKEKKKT

Kd (NLP7 (GST-NLP7-8xHIS)): 52 ± 20 µM
Kd [1]: 86 ± 38 µM
SMILES: O=[N+]([O-])O [nitrate]
